{"source": "paper PMC4205289", "about": "“Triptolide inhibits human immunodeficiency virus type 1 replication by promoting proteasomal degradation of Tat protein” (Retrovirology, 2014)", "assay_type_in_all_cases": "cell-based", "key": {"[1]": {"test_system": "basal HIV-1 LTR transcription", "assay": "Basal LTR transcription activity in TZM-bl and Jurkat cells", "conditions": "tested concentrations (data not shown)", "description": "(§1) The effect of the test compounds on HIV-1 LTR promoter activity was evaluated using the luciferase reporter systems in both TZM-bl and Jurkat cells. TZM-bl cells seeded in 96-well plates (2 × 10^4 cells/well) were treated with either 10 ng/mL TNF-α (Sigma-Aldrich) or co-transfected with pEF1-Tat and pRL-TK (for transfection efficiency normalization) using Lipofectamine 2000 (Invitrogen). The cells were then cultured in the presence of various concentrations of the test compounds. After 24 h (TNF-α stimulation) or 48 h (Tat transfection) of incubation, luciferase activity was determined from cell lysates using the StedyGlo reagent (for TNF-α treated cells) or a dual luciferase assay system (Promega, for transfected cells) as recommended by the manufacturer.\nJurkat cells were seeded in 24-well plates at a density of 2 × 10^5 cells per well. For TNF-α induction, cells were co-transfected with pLTR-Luc and pRL-TK in the presence or absence of the test compounds. Then, the cells were treated with 10 ng/mL TNF-α 36 h post-transfection. After induction for an additional 12 h, luciferase activity was analyzed. For Tat-induced LTR activation, Jurkat cells were co-transfected with pLTR-Luc (or pLTR-Luc-ΔkB), pEF1-Tat and pRL-TK, and cultured in the presence of various concentrations of test compounds for an additional 48 h before the determination of luciferase activity. […]"}, "[2]": {"test_system": "HIV-1 NL4-3", "assay": "Time-of-addition experiment in TZM-bl cells", "conditions": "triptolide at 5 nM, luciferase at 48 h", "description": "TZM-bl cells seeded in 96-well plates (2 × 10^4 /well) were infected with HIV-1 NL4-3 (MOI = 1). The virus inoculum was removed after 1 h of infection. Test compounds were added at different time points after infection (0 h, 2 h, 4 h, 6 h, 8 h, and 10 h). Dextran sulfate was added at 10 μg/mL, zidovudine at 1 μM and triptolide at 5 nM. At 48 h post-infection, the virus replication level was determined by analyzing luciferase activity in the cells as described above."}, "[3]": {"test_system": "TNF-α-induced HIV-1 LTR activation", "assay": "HIV-1 LTR-luciferase reporter assay, TNF-α-induced, TZM-bl cells", "conditions": "TNF-α 10 ng/mL, 24 h", "description": "as §1"}, "[4]": {"test_system": "Tat-induced HIV-1 LTR activation", "assay": "HIV-1 LTR-luciferase reporter assay, Tat-induced, TZM-bl cells", "conditions": "pEF1-Tat transfection, 48 h", "description": "as §1"}, "[5]": {"test_system": "Tat-induced HIV-1 LTR activation", "assay": "HIV-1 LTR-luciferase reporter assay, Tat-induced, Jurkat cells", "conditions": "48 h", "description": "Jurkat cells were seeded in 24-well plates at a density of 2 × 10^5 cells per well. For TNF-α induction, cells were co-transfected with pLTR-Luc and pRL-TK in the presence or absence of the test compounds. Then, the cells were treated with 10 ng/mL TNF-α 36 h post-transfection. After induction for an additional 12 h, luciferase activity was analyzed. For Tat-induced LTR activation, Jurkat cells were co-transfected with pLTR-Luc (or pLTR-Luc-ΔkB), pEF1-Tat and pRL-TK, and cultured in the presence of various concentrations of test compounds for an additional 48 h before the determination of luciferase activity. Luciferase levels were expressed relative to levels in cells without induction."}, "[6]": {"test_system": "cyclin T1", "assay": "Western blot of endogenous protein in HeLa cells", "conditions": "in the presence of triptolide, Western blotting", "description": "(§2) (A) HeLa cells were transfected with pEF1-FLAG-Tat in the presence of increasing concentrations of triptolide. Cells were harvested 48 h post-transfection, and protein expression levels were determined by Western blotting. (B) HeLa cells were transfected either with pEF1-GFP (left) or pEF1-Tat-GFP (right) in the presence of increasing concentrations of triptolide. Cells were harvested 48 h post-transfection, and protein expression levels were determined by Western blotting.\n(§3) Cells were washed with phosphate buffered saline (PBS) and lysed with radio immunoprecipitation assay lysis buffer supplemented with complete mini protease inhibitor cocktail (Roche) at 4°C for 1 h. Proteins from cell lysates were separated by SDS-PAGE and transferred to polyvinylidene difluoride membranes. After overnight incubation with primary antibodies at 4°C, each blot was probed with horseradish peroxidase-conjugated secondary antibody. Immunoreactive signals were detected with an enhanced chemiluminescence substrate (Thermo Scientific) using an AlphaEaseH FC Imaging System (Alpha Innotech Corporation)."}, "[7]": {"test_system": "CDK9", "assay": "Western blot of endogenous protein in HeLa cells", "conditions": "in the presence of triptolide, Western blotting", "description": "as §2, §3"}, "[8]": {"test_system": "HIV-1-Luc", "assay": "microbe, parasite or virus in culture", "description": "In the antiviral assay with the HIV-1 reporter virus, Jurkat cells were seeded at a density of 2 × 10^4 cells per well in 96-well tissue culture plates and infected with HIV-1-Luc at an MOI of 0.5 in the presence or absence of the test compounds. At 48 h post-infection, luciferase activity in the cells was determined and EC50 values were calculated as described above."}, "[9]": {"test_system": "HIV-1 NL4-3", "assay": "microbe, parasite or virus in culture", "description": "The anti-HIV-1 activities of compounds were evaluated in a variety of assays, including the TZM-bl assay, reporter virus assay, and PBMCs-based antiviral assay. In the TZM-bl assay, TZM-bl cells were plated at a density of 1 × 10^4 cells per well in 96-well tissue culture plates one day before infection. On the day of the experiment, the cell supernatant was removed, and 100 μL of each serially diluted compounds was added were added. HIV-1 NL4-3 in 50 μL of complete medium was then added to each well to achieve a multiplicity of infection (MOI) of 0.5. At 48 h post-infection, the luciferase activity in the cells was analyzed with the SteadyGlo reagent (Promega) according to manufacturer’s instructions. The luminescent signal was measured using the EnVison 2102 Multilabel Reader (Perkin Elmer)."}, "[10]": {"test_system": "PBMCs", "assay": "Cytotoxicity, CellTiter-Glo", "description": "(§4) The cytotoxicity of the tested compounds was evaluated in parallel with their antiviral assays using the CellTiter-Glo reagent (Promega) according to the manufacturer’s protocol. The 50% cytotoxic concentrations (CC50s) is the compound concentration that reduced cell viability by 50%."}, "[11]": {"test_system": "TZM-bl cells", "assay": "Cytotoxicity, CellTiter-Glo", "conditions": "TZM-bl, all tested concentrations, in parallel with antiviral assay", "description": "as §4"}, "[12]": {"assay": "Cytotoxicity, CellTiter-Glo", "conditions": "human; for CC50 at 6 days: PBMCs, mock-infected cell viability", "description": "as §4"}}, "note": "Entries after “also recorded” stand apart in the source; their conditions may differ."}
{"smiles": "CC(C)[C@]12O[C@H]1[C@@H]1O[C@]13[C@]1(O[C@H]1C[C@H]1C4=C(CC[C@@]13C)C(=O)OC4)[C@@H]2O", "note": "[triptolide]", "values": [{"measurement": "effect on basal LTR transcription activity", "setting": "[1]", "value": "did not affect basal LTR transcription activity"}, {"measurement": "time post-infection to which addition could be postponed without losing activity", "setting": "[2]", "value": "up to 10 h"}, {"measurement": "effect on TNF-α-induced luciferase production", "setting": "[3]", "value": "slightly enhance TNF-α-induced luciferase production; also recorded: not active"}, {"measurement": "effect on Tat-induced reporter activity", "setting": "[4]", "value": "reduced Tat-induced reporter activity in a dose-dependent fashion"}, {"measurement": "effect on Tat-induced gene expression (pLTR-Luc)", "setting": "[5]; co-transfection with pEF1-Tat", "value": "inhibitory effect"}, {"measurement": "effect on Tat-mediated LTR activation, LTR with two mutated NF-κB binding sites", "setting": "[5]; pLTRΔκB-Luc", "value": "reduced the Tat-mediated LTR activation"}, {"measurement": "expression level of endogenous cyclin T1", "setting": "[6]", "value": "remained unchanged"}, {"measurement": "expression level of endogenous CDK9", "setting": "[7]", "value": "remained unchanged"}, {"measurement": "EC50", "setting": "[8]; Human immunodeficiency virus 1, Jurkat, 48 h", "value": 0.45, "unit": "nM"}, {"measurement": "selectivity ratio at 48 h", "setting": "[8]; human, HIV-1-Luc, Jurkat, read-out: SI (selective index, CC50/EC50)", "value": 30.9}, {"measurement": "EC50", "setting": "[9]; Human immunodeficiency virus 1, NL43, HIV-1 NL4-3, TZM-bl, luciferase, MOI 0.5, 48 h post-infection", "value": 0.32, "unit": "nM"}, {"measurement": "reduction of luciferase expression", "setting": "[9]; at 5 nM, TZM-bl, HIV-1 NL4-3", "value": 97.9, "unit": "%"}, {"measurement": "selectivity ratio at 48 h", "setting": "[9]; human, HIV-1 NL4-3, TZM-bl, read-out: SI (selective index, CC50/EC50)", "value": 79.4}, {"measurement": "maximum non-toxic concentration", "setting": "[10]", "value": 4, "unit": "nM"}, {"measurement": "toxicity in cell viability assay", "setting": "[11]", "value": "no obvious toxicity"}, {"measurement": "CC50", "setting": "[12]; Jurkat cells, mock-infected Jurkat cell viability", "value": 13.9, "unit": "nM"}, {"measurement": "CC50 at 6 days", "setting": "[12]; PBMC donor A", "value": 12.6, "unit": "nM"}, {"measurement": "CC50 at 6 days", "setting": "[12]; PBMC donor B", "value": 15.3, "unit": "nM"}, {"measurement": "CC50 at 6 days", "setting": "[12]; PBMC donor C", "value": 11.2, "unit": "nM"}, {"measurement": "CC50", "setting": "[12]; TZM-bl cells, mock-infected TZM-bl cell viability", "value": 25.4, "unit": "nM"}]}
